Laboratory results: ChEMBL document CHEMBL4251553, “Synthesis, anticancer evaluation and pharmacokinetic study of novel 10-O-phenyl ethers of dihydroartemisinin” (Eur J Med Chem, 2017)

How the values were obtained:
[1] = Plasma concentration in Sprague-Dawley rat at 10 mg/kg, iv administered as single dose measured at 8 hrs post dosing by LC-MS/MS analysis; format: ADME, organism-based
[2] = Cmax in Sprague-Dawley rat at 10 mg/kg, iv administered as single dose by LC-MS/MS analysis; format: ADME, organism-based; set-up: dose 10 mg/kg, route intravenous; conditions: in vivo
[3] = Apparent volume of distribution in Sprague-Dawley rat at 10 mg/kg, iv administered as single dose by LC-MS/MS analysis; format: ADME, organism-based; conditions: in vivo, read-out: Vz
MCF7 [4] = experiment: Cell cycle arrest in human MCF7 cells assessed as accumulation at G0/G1 phase at 1 uM after 24 hrs by propidium iodide staining based flow cytometry (reference value: 57.83%); format: functional
NCI/ADR-RES = experiment: Cell cycle arrest in human MCF7/ADR cells assessed as accumulation at sub-G1 phase at 1 uM after 48 hrs by propidium iodide staining based flow cytometry (reference value: 0.25%); format: functional
MCF7 [5] = experiment: Cell cycle arrest in human MCF7 cells assessed as accumulation at G2/M phase at 1 uM after 24 hrs by propidium iodide staining based flow cytometry (reference value: 22.57%); format: functional
[6] = Plasma concentration in Sprague-Dawley rat at 10 mg/kg, iv administered as single dose measured at 0.25 hrs post dosing by LC-MS/MS analysis; format: ADME, organism-based
[7] = Plasma concentration in Sprague-Dawley rat at 10 mg/kg, iv administered as single dose measured at 4 hrs post dosing by LC-MS/MS analysis; format: ADME, organism-based
[8] = AUC (0 to t) in Sprague-Dawley rat at 10 mg/kg, iv administered as single dose by LC-MS/MS analysis; format: ADME, organism-based; conditions: in vivo
MCF7 [9] = experiment: Cell cycle arrest in human MCF7 cells assessed as accumulation at G0/G1 phase at 1 uM after 48 hrs by propidium iodide staining based flow cytometry (reference value: 57.21%); format: functional
[10] = Selectivity ratio of GI50 for human MCF7 cells to GI50 for human MCF7/ADR cells; format: functional
MCF7 [11] = experiment: Cell cycle arrest in human MCF7 cells assessed as accumulation at S-phase at 1 uM after 48 hrs by propidium iodide staining based flow cytometry (reference value: 18.39%); format: functional
[12] = Apparent terminal half life in Sprague-Dawley rat at 10 mg/kg, iv administered as single dose by LC-MS/MS analysis; format: ADME, organism-based; conditions: in vivo, read-out: betat1/2(app) (converted)
[13] = AUC (0 to infinity) in Sprague-Dawley rat at 10 mg/kg, iv administered as single dose by LC-MS/MS analysis; format: ADME, organism-based; set-up: dose 10 mg/kg, route intravenous, time infinity; conditions: in vivo
MCF7 [14] = experiment: Cell cycle arrest in human MCF7 cells assessed as accumulation at sub-G1 phase at 0.5 uM after 48 hrs by propidium iodide staining based flow cytometry (reference value: 0.18%); format: functional
[15] = Plasma concentration in Sprague-Dawley rat at 10 mg/kg, iv administered as single dose measured at 1 hr post dosing by LC-MS/MS analysis; format: ADME, organism-based

`C[C@H]1[C@@H](Oc2ccc(-c3cc(-c4ccccc4)[nH]n3)cc2)O[C@@H]2O[C@@]3(C)CC[C@H]4[C@H](C)CC[C@@H]1[C@@]24OO3` showed a concentration at 8 h [1] of 34.1 ng/mL, a Cmax [2] of 4460 ng/mL and a Vd [3] of 18 L/kg. For the same compound, the Activity (MCF7 [4]) was 72.58%, the Activity (NCI/ADR-RES) was 10.99% and the Activity (MCF7 [5]) was 16.98%. It also gave a concentration at 0.25 h [6] of 1720 ng/mL, a concentration at 4 h [7] of 147 ng/mL and an AUC(0-t) [8] of 2910 ng·h/mL. The Activity (MCF7 [9]) was 85.04%, the RatioGI50 [10] was 11.7 and the Activity (MCF7 [11]) was 2.14%. For the same compound, the half-life [12] was 3.58 h, the AUC(0-inf) [13] was 2920 ng·h/mL and the Activity (MCF7 [14]) was 0.38%. For the same compound, the concentration at 1 h [15] was 436 ng/mL.
